Assay results published in patent US4595677A, “Substituted tetrapeptides” (Ciba-Geigy Corporation, priority 1982, dated 1986).
Non-standard residues stand in square brackets, D forms with d. Residues, ends and D or L forms follow the SMILES beside them. *: point of attachment. Sta = CC(C)C[C@H](N)[C@@H](O)CC(=O)O; Cbz = O=C(OCc1ccccc1)*; Boc = CC(C)(C)OC(=O)*; Lac = C[C@H](O)C(=O)O; βAla = NCCC(=O)O; Sar = CNCC(=O)O

Assay: solubility in water of the isolated powder
Assay type: physicochemical
Conditions: lyophilised product

Row | Molecule | water solubility of the amorphous powder
1 | Cbz-RRPFH[Sta][Sar]HK(Boc)-OMe [Example 16] | readily water-soluble
2 | CC(C)C[C@H](NC(=O)[C@H](Cc1c[nH]cn1)NC(=O)[C@H](Cc1ccccc1)NC(=O)[C@@H]1CCCN1C(=O)[C@H](Cc1c[nH]cn1)NC(=O)[C@@H]1CCCN1)[C@@H](O)CC(=O)N[C@H](C(=O)N[C@@H](Cc1ccc(O)cc1)C(=O)N[C@@H](CCCCN)C(=O)O)C(C)C [Example 1, H-Pro-His-Pro-Phe-His-Sta-Val-Tyr-Lys-OH×AcOH] (H-PHPFH[Sta]VYK-OH) | readily water-soluble
3 | Z-Arg-Arg-Pro-Phe-His-Sta-Lac-His-NH2 [Example 22] | readily water-soluble
4 | CC(C)C[C@H](NC(=O)[C@H](Cc1c[nH]cn1)NC(=O)[C@H](Cc1ccccc1)NC(=O)[C@@H]1CCCN1C(=O)[C@H](CCCNC(=N)N)NC(=O)[C@@H](N)CCCNC(=N)N)[C@@H](O)CC(=O)O[C@@H](C)C(=O)N[C@@H](Cc1c[nH]cn1)C(N)=O [Example 23, H-Arg-Arg-Pro-Phe-His-Sta-Lac-His-NH2] (H-RRPFH[Sta][Lac]H-NH2) | water-soluble
5 | CC(C)C[C@H](NC(=O)[C@H](Cc1c[nH]cn1)NC(=O)[C@H](Cc1ccccc1)NC(=O)[C@@H]1CCCN1C(=O)[C@H](CCCNC(=N)N)NC(=O)[C@@H](N)CCCNC(=N)N)[C@@H](O)CC(=O)N(C)CC(=O)N[C@@H](Cc1c[nH]cn1)C(=O)N[C@@H](CCCCN)C(=O)O [Example 19, H-Arg-Arg-Pro-Phe-His-Sta-Sar-His-Lys-OH] (H-RRPFH[Sta][Sar]HK-OH) | readily water-soluble
6 | Cbz-RRPFH[Sta][βAla]H-NH2 [Example 20] | water-soluble
